Like-named read-outs stand apart in the source and are kept apart here.
Tests used:
PI 3-kinase beta [1] = target: T1, PI 3-kinase beta (Homo sapiens, UniProt P42338); assay: Cellular assay I1, p-Akt (S473) in Rat-1 cells, Surefire format; assay type: cell-based; details: non-asterisked data: version I1 (Surefire format), Rat-1 cells; read-out: Assay I PI3Kβ IC50
mTOR = mTOR (Homo sapiens, UniProt P42345); assay: Lanthascreen kinase binding assay, assay G; details: read-out: Assay G mTOR IC50
Experimental: Lanthascreen™ Kinase Binding Assay for mTOR (G)
Binding of an inhibitor to the kinase competes for binding with the tracer, resulting in a loss of FRET.
50 nL of compound dilutions were dispensed onto white 384-well small volume polystyrene plate.

[2] = tested on: IL-8-induced neutrophil shape change in human whole blood; assay: Whole blood neutrophil shape change assay (L); assay type: cell-based; details: IL-8, human whole blood, read-out: Assay L WBSC IC50
Experimental: Whole Blood Neutrophil Shape Change Assay (L)
IL-8 was made up to 2 μM stocks in 0.1% bovine serum albumin/PBS and stored at −80° C. On the day IL-8 was diluted in PBS (phosphate buffered saline) 10 minutes before use. IL-8 was used at final concentration of 2 nM and a concentration range from 0.003 to 200 nM for the donor dose response curve.
Assay fixative solution was prepared fresh each day from 10× concentrated CellFIX™ solution diluted 1:10 in sterile distilled water and then 1:4 with PBS. Assay fixative solution was kept on ice prior to use.
A 10× lysis buffer was prepared in advance by dissolving 20.75 g NH4Cl and 2.5 g KHCO3 in 250 ml sterile H2O. This 10× lysis buffer was filtered under sterile conditions and stored for up to two weeks at 4° C. On the day a 1× lysis solution was prepared with sterile distilled H2O and kept on ice prior to use.
The test compounds were prepared as 10 mM stock solutions in 100% DMSO and were stored at 4° C. Once in use for an assay 10 mM stock compounds were thawed and stored at RT protected from light. Compound dilutions were prepared fresh on the day. The first series of dilutions in 100% DMSO were done first thing in the morning. Only once blood had been collected and arrived in laboratory was the next set of dilutions into PBS carried out (1:10 PBS, 10% DMSO). This limited the exposure of diluted compound to plastic and made sure the exposure timing was consistent between assays.
Compound dilutions in 100% DMSO were prepared as described previously. Human whole blood was collected in K2 EDTA Vacutainers. Once blood was in the laboratory, compound dilutions into PBS were carried out as described previously and depicted in Table 1.
The outer wells of the deep well assay plate were filled with 1200 μl of sterile distilled H2O in an effort to limit edge effects (rows A1-H1, A1-A12, A12-H12).
An IL-8 dose response was determined for each blood donor examined, to monitor the donor response to IL-8. At this step in assay preparation for the IL-8 dose response samples 10 μl of PBS was added to designated wells. In addition the assay window without DMSO was also assessed each day. For such samples at this step in assay preparation 10 μl of PBS was added in the place of 10% DMSO.
Lids were placed on the 96 well plates and samples were incubated for 15 minutes at 37° C. in a water-bath.
Following the compound pre-incubation 10× final IL-8 was added to appropriate wells (10 μl of 20 nM working stock IL-8, final IL-8 concentration in blood=2 nM) and 10 μl of PBS was added to the un-stimulated controls. 10× final dose response range IL-8 was also added to designated wells (final concentration range on assay plate was 200 nM to 0.0005 nM, 1:5 serial dilution in PBS). The IL-8 and PBS were added to appropriate wells across all assay plates in the same sequence as the blood to compound addition. […] Samples were incubated for 5 minutes at 37° C. in a water-bath. Following the incubation sample plates were transferred to ice where 250 μl of chilled Assay Fixative Buffer was added promptly to all wells.
Samples were incubated on ice for 7 minutes (no mixing). […] Once added samples were mixed once and incubated on ice for 30 minutes to achieve uniform red blood cells lysis. After lysis, 200 μl of sample was transferred to a 96 well microplate on ice. […] Granulocytes were identified based on differential side scatter (SSC) and forward scatter (FSC) characteristics.

PI 3-kinase gamma [3] = target: T2, PI 3-kinase gamma (Homo sapiens, UniProt P48736); assay: TR-FRET Adapta assay, assay E; assay type: biochemical; details: read-out: Assay E PI3Kγ IC50
T2 sequence (P48736 whole entry): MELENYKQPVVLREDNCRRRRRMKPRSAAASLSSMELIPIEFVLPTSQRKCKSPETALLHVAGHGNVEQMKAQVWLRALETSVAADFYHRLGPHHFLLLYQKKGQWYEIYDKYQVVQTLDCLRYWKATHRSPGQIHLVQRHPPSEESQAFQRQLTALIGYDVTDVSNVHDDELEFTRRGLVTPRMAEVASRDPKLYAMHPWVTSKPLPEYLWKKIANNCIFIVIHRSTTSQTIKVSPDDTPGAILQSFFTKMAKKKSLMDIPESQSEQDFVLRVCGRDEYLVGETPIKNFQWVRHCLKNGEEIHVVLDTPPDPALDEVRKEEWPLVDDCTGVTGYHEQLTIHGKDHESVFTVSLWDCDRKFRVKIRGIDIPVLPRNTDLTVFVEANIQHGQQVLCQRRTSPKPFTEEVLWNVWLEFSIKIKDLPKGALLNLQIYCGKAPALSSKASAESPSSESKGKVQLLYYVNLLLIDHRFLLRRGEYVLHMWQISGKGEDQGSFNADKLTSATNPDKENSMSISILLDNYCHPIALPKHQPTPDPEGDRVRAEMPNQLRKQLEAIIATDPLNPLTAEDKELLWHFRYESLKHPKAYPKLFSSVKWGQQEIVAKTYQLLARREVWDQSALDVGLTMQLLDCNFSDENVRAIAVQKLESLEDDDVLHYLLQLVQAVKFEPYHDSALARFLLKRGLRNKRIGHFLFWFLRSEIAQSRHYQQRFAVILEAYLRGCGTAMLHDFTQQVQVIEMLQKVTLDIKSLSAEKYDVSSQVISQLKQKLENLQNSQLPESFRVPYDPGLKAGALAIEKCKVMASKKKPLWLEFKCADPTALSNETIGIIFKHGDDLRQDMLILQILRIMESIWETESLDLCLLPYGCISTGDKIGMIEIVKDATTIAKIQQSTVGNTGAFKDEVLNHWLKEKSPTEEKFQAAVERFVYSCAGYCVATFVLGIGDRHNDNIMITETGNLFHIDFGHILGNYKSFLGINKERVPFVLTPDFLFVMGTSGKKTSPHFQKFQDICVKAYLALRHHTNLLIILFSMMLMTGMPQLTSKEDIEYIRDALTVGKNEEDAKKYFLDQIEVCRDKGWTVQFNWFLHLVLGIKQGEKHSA

PI 3-kinase gamma [4] = target: T2, PI 3-kinase gamma; assay: Cellular U937 AKT assay K1 (MSD); assay type: cell-based; details: U937 cells, K1 format; read-out: Assay K1 PI3Kγ IC50
PI 3-kinase delta [5] = target: T3, PI 3-kinase delta (Homo sapiens, UniProt O00329); assay: Cellular assay J1, p-Akt (S473) in Rat-1 cells, Surefire format; assay type: cell-based; details: non-asterisked data: version J1 (Surefire format), Rat-1 cells; read-out: Assay J PI3Kδ IC50
Target sequence in this assay (O00329 whole entry): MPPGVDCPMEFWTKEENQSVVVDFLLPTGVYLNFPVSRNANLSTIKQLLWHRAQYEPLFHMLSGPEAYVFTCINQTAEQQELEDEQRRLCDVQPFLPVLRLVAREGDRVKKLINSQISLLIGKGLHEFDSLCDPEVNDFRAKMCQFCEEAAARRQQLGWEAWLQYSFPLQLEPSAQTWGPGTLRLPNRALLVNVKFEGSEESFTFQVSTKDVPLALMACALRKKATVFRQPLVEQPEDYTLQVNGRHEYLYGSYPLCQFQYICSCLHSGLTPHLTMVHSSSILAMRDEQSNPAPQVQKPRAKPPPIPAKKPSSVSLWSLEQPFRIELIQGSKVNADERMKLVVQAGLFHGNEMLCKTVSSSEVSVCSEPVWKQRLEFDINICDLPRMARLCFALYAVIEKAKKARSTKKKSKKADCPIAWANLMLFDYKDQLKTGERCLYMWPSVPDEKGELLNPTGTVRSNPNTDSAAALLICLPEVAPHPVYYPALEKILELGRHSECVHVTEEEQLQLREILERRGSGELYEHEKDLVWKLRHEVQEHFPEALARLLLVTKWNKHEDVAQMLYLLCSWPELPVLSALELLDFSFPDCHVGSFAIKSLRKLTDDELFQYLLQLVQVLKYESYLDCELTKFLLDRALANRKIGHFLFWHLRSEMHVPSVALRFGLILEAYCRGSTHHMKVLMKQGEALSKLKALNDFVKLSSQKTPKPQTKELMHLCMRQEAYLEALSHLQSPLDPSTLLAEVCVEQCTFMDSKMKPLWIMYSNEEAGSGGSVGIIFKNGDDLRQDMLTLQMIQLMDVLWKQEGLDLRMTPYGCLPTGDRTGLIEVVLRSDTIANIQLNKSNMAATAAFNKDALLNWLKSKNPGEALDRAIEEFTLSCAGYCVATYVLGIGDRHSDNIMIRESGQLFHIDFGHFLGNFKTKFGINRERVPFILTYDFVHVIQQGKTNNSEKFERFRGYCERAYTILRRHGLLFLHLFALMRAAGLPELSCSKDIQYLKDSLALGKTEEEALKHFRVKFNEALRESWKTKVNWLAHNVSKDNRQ
Target sequence in this assay (Q63787 whole entry partner): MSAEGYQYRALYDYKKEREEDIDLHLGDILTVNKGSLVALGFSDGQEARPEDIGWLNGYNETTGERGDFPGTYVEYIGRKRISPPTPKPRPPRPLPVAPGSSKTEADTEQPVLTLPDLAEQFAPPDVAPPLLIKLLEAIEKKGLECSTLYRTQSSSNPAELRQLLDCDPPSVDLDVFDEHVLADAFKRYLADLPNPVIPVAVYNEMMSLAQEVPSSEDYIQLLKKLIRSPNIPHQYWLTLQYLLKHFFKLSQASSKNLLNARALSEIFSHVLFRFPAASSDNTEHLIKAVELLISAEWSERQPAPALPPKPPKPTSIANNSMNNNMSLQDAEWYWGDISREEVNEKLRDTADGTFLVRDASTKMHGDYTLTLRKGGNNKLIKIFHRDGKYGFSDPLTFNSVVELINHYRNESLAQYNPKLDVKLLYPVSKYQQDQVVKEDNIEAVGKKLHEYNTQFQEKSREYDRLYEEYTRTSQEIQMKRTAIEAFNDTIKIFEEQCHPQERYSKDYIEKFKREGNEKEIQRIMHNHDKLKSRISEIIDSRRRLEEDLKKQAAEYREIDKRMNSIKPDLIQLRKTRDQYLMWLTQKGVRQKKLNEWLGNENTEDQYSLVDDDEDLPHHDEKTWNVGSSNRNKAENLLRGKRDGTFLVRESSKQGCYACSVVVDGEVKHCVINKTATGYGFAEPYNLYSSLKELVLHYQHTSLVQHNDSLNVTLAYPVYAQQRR

PI 3-kinase delta [6] = target: T3, PI 3-kinase delta; assay: TR-FRET Adapta assay, assay F; details: read-out: Assay F PI3Kδ IC50
Target sequence in this assay (O00329 whole entry): as the sequence (O00329 whole entry) above
Target sequence in this assay (P27986 461-568 partner): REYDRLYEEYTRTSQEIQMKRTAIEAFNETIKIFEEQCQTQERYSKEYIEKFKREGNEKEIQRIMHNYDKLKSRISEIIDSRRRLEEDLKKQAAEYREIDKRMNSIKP

Vps34 = Vps34 (Homo sapiens, UniProt Q8NEB9); assay: Kinase Glo Luminescent Kinase Assay (Kglo), assay C; assay type: biochemical; details: read-out: Assay C VPS34 IC50
Experimental: Kinase Glo Luminescent Kinase Assay (Kglo) for Pb 3-Kinase Alpha (A), Pb 3-Kinase Beta (B), Vps34 (C), Pb 4-Kinase Beta (D)
The Kinase Glo Luminescent Kinase Assay (Promega, Madison/Wis., USA) is a homogeneous HTS method of measuring kinase activity by quantifying the amount of ATP remaining in solution following a kinase reaction.
L-α-phosphatidylinositol (PI), provided as 10 mg/ml solution in methanol, was transferred into a glass tube and dried under a nitrogen beam. It was then resuspended in 3% OctylGlucoside (1-0-n-octyl-beta-D-glucopyranoside) by vortexing and stored at 4° C. 5 μL of a mix of PI/OctylGlucoside with the PI 3-kinase alpha and PI 3-kinase beta subtypes, or Vps34 or PI 4-kinase beta were added. Kinase reactions were started by the addition of 5 μl of an ATP-mix containing in a final volume 10 μL 10 mM TRIS-HCl pH 7.5, 3 mM MgCl2, 50 mM NaCl, 0.05% CHAPS, 1 mM DTT and 1 μM ATP at room temperature.
All fits were performed with the program XLfit4 (ID Business Solutions, Guildford, UK).

[7] = Microsomal clearance assay (M); details: intrinsic clearance in rat liver microsomes
Experimental: The experiments were performed in 96-well glass plates at 37° C. on an automated Tecan EVO platform. Test compounds at a concentration of 10 mM in pure DMSO were diluted 1:1000 in water to 10 μM. […] Reactions were initiated by the addition of 150 μL of a cofactor solution containing 2 mM NADPH.

PI 3-kinase beta [8] = target: T1, PI 3-kinase beta; assay: Kinase Glo Luminescent Kinase Assay (Kglo), assay B; assay type: biochemical; details: read-out: Assay B PI3Kβ IC50
PI 4-kinase beta = PI 4-kinase beta (Homo sapiens, UniProt Q9UBF8); assay: Kinase Glo Luminescent Kinase Assay (Kglo), assay D; assay type: biochemical; details: read-out: Assay D PI4Kβ IC50
Chain of PI 4-kinase beta (Q9UBF8 whole entry): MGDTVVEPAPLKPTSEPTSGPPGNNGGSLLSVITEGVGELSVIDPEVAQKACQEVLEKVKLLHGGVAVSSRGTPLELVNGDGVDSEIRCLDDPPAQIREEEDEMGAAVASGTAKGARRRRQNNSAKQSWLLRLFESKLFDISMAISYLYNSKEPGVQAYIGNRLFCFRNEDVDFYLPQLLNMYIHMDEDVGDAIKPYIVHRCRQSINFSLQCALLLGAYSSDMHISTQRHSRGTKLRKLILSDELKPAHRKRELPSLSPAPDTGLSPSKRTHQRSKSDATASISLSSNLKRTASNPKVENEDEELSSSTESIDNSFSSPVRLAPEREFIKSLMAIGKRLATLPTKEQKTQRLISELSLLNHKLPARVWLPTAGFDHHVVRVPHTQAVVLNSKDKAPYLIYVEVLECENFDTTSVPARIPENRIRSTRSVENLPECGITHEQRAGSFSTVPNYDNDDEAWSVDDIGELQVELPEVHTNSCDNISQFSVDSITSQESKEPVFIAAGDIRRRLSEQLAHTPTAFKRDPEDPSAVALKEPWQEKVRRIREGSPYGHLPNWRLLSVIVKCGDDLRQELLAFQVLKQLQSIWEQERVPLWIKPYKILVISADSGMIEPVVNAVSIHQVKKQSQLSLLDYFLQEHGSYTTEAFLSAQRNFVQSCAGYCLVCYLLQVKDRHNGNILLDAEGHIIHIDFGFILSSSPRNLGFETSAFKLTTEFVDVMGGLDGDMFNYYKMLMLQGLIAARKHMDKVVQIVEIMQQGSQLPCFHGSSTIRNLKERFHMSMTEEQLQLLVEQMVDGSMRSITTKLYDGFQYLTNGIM

PI 3-kinase alpha [9] = target: T4, PI 3-kinase alpha (Homo sapiens, UniProt P42336); assay: Cellular assay H1, p-Akt (S473) in Rat-1 cells, Surefire format; assay type: cell-based; details: non-asterisked data: version H1 (Surefire format), Rat-1 cells; read-out: Assay H PI3Kα IC50
Target sequence in this assay (P42336 whole entry): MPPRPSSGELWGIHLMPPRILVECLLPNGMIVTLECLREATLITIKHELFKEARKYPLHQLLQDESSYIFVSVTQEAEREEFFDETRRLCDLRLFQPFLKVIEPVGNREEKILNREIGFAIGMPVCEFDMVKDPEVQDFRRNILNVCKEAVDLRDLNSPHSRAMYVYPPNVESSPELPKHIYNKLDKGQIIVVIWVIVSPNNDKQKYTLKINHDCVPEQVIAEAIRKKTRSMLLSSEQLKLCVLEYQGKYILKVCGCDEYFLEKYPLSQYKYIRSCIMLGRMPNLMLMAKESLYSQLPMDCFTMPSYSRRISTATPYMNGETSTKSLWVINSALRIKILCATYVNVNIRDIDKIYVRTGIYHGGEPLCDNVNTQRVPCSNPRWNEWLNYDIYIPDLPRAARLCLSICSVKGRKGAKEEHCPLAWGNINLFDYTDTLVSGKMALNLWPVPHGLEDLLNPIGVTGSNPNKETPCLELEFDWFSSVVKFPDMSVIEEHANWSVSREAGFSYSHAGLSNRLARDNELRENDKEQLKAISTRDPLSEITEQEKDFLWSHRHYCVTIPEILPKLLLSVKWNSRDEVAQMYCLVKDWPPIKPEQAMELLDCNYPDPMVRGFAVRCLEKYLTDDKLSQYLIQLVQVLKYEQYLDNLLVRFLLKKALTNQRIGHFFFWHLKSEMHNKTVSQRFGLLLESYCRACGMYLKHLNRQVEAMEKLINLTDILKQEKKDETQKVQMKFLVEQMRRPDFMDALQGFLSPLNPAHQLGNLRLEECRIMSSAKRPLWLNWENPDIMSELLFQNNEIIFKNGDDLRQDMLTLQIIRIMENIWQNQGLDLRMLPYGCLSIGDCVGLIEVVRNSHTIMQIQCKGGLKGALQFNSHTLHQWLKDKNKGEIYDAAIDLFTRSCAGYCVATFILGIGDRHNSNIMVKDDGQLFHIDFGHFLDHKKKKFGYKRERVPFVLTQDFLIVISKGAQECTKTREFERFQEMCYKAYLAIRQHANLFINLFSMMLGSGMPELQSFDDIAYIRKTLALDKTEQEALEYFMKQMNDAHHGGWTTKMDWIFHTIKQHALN
Target sequence in this assay (Q63787 whole entry partner): as the sequence (Q63787 whole entry partner) above

PI 3-kinase alpha [10] = target: T4, PI 3-kinase alpha; assay: Kinase Glo Luminescent Kinase Assay (Kglo), assay A; assay type: biochemical; details: read-out: Assay A PI3Kα IC50
Target sequence in this assay (P42336 whole entry): as the sequence (P42336 whole entry) above

Row | SMILES | IC50 (PI 3-kinase beta [1]) | IC50 (mTOR) | IC50 [2] | IC50 (PI 3-kinase gamma [3]) | IC50 (PI 3-kinase gamma [4]) | IC50 (PI 3-kinase delta [5]) | IC50 (PI 3-kinase delta [6]) | IC50 (Vps34) | Assay M RLM CI(int) [7] | IC50 (PI 3-kinase beta [8]) | IC50 (PI 4-kinase beta) | IC50 ([2]; Homo sapiens, Neutrophil) | IC50 (PI 3-kinase alpha [9]) | IC50 (PI 3-kinase alpha [10])
1 | Cc1ccc(S(=O)(=O)NC2CC3(CC(O)C3)C2)cc1-c1cnc(N)c(-c2cn(C)nc2C)n1 (single isomer, unassigned) [Example 9a, (R)-3-[5-Amino-6-(1,3-dimethyl-1H-pyrazol-4-yl)-pyrazin-2-yl]-N-(6-hydroxy-spiro[3.3]hept-2-yl)-4-methyl-benzenesulfonamide or (S)-3-[5-Amino-6-(1,3-dimethyl-1H-pyrazol-4-yl)-pyrazin-2-yl]-N-(6-hydroxy-spiro[3.3]hept-2-yl)-4-methyl-benzenesulfonamide] | > 10000 nM | 8100 nM | 327 nM | 15 nM | 40 nM | 3530 nM | 200 nM | > 10000 nM | 34 µL/min/mg | 540 nM |  |  |  | 
2 | Cc1ccc(S(=O)(=O)NCCC(C)(C)O)cc1-c1cnc(N)c(-n2cccn2)n1 [Example 62, 3-(5-Amino-6-(1H-pyrazol-1-yl)pyrazin-2-yl)-N-(3-hydroxy-3-methylbutyl)-4-methylbenzenesulfonamide] |  | > 9100 nM |  | 56 nM | 110 nM | 970 nM | 210 nM | > 9100 nM | 155 µL/min/mg | 1010 nM | 3680 nM | 7910 nM | 1440 nM | 680 nM
3 | Cc1ccc(S(=O)(=O)N[C@H]2CC[C@@H](O)CC2)cc1-c1cnc(N)c(-c2cnn(C)c2)n1 [Example 75, 3-(5-Amino-6-(1-methyl-1H-pyrazol-4-yl)pyrazin-2-yl)-N-((1s,4s)-4-hydroxycyclohexyl)-4-methylbenzenesulfonamide] |  | 4510 nM |  | 56 nM | 91 nM | 7800 nM | 240 nM | 7490 nM | 13 µL/min/mg | 2480 nM | 7970 nM | 830 nM | > 10000 nM | 470 nM
4 | Cc1csc(-c2nc(-c3cc(S(=O)(=O)NCC(C)(C)O)ccc3C)cnc2N)n1 [Example 80, 3-(5-Amino-6-(4-methylthiazol-2-yl)pyrazin-2-yl)-N-(2-hydroxy-2-methylpropyl)-4-methylbenzenesulfonamide] |  | > 10000 nM |  | 77 nM | 98 nM |  | 400 nM | > 10000 nM | 106 µL/min/mg | 1700 nM | 4550 nM | 2880 nM |  | 250 nM
5 | Cc1ccc(-c2nc(-c3cc(S(=O)(=O)NCCC(C)(C)O)ccc3C)cnc2N)s1 [Example 119.44] |  | 3990 nM |  | 99 nM | 42 nM |  | 40 nM | > 9100 nM | 137 µL/min/mg | 1370 nM | 760 nM | 7080 nM |  | 120 nM
6 | Cc1ccc(S(=O)(=O)N[C@H]2CC[C@H](O)CC2)cc1-c1cnc(N)c(-c2cnn(C)c2)n1 [Example 58, Trans-3-(5-Amino-6-(1-methyl-1H-pyrazol-4-yl)pyrazin-2-yl)-N-(-4-hydroxycyclohexyl)-4-methylbenzenesulfonamide] |  | > 9100 nM |  | 19 nM | 73 nM | 2460 nM | 100 nM | 3100 nM | 14 µL/min/mg | 2930 nM | 5850 nM | 385 nM | 8580 nM | 490 nM
7 | Cc1ccc(S(=O)(=O)NCC(C)(C)CO)cc1-c1cnc(N)c(-c2cc(C3CC3)no2)n1 [Example 99, 3-(5-Amino-6-(3-cyclopropylisoxazol-5-yl)pyrazin-2-yl)-N-(3-hydroxy-2,2-dimethylpropyl)-4-methylbenzenesulfonamide] |  | 4950 nM |  | 14 nM | 59 nM |  | 140 nM | 2950 nM | 74 µL/min/mg | 1650 nM | 2700 nM | 3520 nM |  | 740 nM
8 | Cc1ccc(S(=O)(=O)NCCC(C)(C)O)cc1-c1cnc(N)c(-c2ccnn2C)n1 [Example 77, 3-(5-Amino-6-(1-methyl-1H-pyrazol-5-yl)pyrazin-2-yl)-N-(3-hydroxy-3-methylbutyl)-4-methylbenzenesulfonamide] |  | 5470 nM |  | 34 nM | 134 nM |  | 300 nM | > 9100 nM | 45 µL/min/mg | 4200 nM | > 9100 nM | 881 nM |  | 230 nM
9 | Cc1ccc(S(=O)(=O)NC2(CO)CC2)cc1-c1cnc(N)c(-n2cncn2)n1 [Example 98, 3-(5-Amino-6-(1H-1,2,4-triazol-1-yl)pyrazin-2-yl)-N-(1-(hydroxymethyl)cyclopropyl)-4-methylbenzenesulfonamide] |  | > 9100 nM |  | 38 nM | 200 nM |  | 310 nM | > 9100 nM | 31 µL/min/mg | 1400 nM | 2500 nM | 4170 nM |  | 1700 nM
10 | Cc1ccc(S(=O)(=O)NCC(C)(C)O)cc1-c1cnc(N)c(-c2nc(C3CC3)no2)n1 [Example 95, 3-(5-Amino-6-(3-cyclopropyl-1,2,4-oxadiazol-5-yl)pyrazin-2-yl)-N-(2-hydroxy-2-methylpropyl)-4-methylbenzenesulfonamide] |  | 7400 nM |  | 36 nM | 262 nM |  | 730 nM | > 9550 nM | 53 µL/min/mg | 4100 nM | > 9550 nM | 1590 nM |  | 900 nM
11 | Cc1cn(-c2nc(-c3cc(S(=O)(=O)NCCC(C)(C)O)ccc3C)cnc2N)cn1 [Example 63, 3-(5-Amino-6-(4-methyl-1H-imidazol-1-yl)pyrazin-2-yl)-N-(3-hydroxy-3-methylbutyl)-4-methylbenzenesulfonamide] |  | 6500 nM |  | 68 nM | 163 nM | 3250 nM | 420 nM | > 9100 nM | 44 µL/min/mg | 3930 nM | 7850 nM | 626 nM | 2970 nM | 330 nM
12 | Cc1ccc(S(=O)(=O)NCC(C)(C)O)cc1-c1cnc(N)c(-c2cc(C3CC3)no2)n1 [Example 79, 3-(5-Amino-6-(3-cyclopropylisoxazol-5-yl)pyrazin-2-yl)-N-(2-hydroxy-2-methylpropyl)-4-methylbenzenesulfonamide] |  | 6500 nM |  | 22 nM | 53 nM |  | 370 nM | 7600 nM | 63 µL/min/mg | 1200 nM | 3900 nM | 3210 nM |  | 280 nM
13 | Cc1ccc(S(=O)(=O)NCC(=O)C(C)(C)C)cc1-c1cnc(N)c(-n2cncn2)n1 [Example 36, 3-(5-Amino-6-[1,2,4]triazol-1-yl-pyrazin-2-yl)-N-(3,3-dimethyl-2-oxo-butyl)-4-methyl-benzenesulfonamide] |  | 250 nM |  | 17 nM | 51 nM |  | 110 nM | > 10000 nM | 710 µL/min/mg | 850 nM | 8000 nM | 478 nM |  | 160 nM
14 | Cc1cc(C)n(-c2nc(-c3cc(S(=O)(=O)NCC(C)(C)O)ccc3C)cnc2N)n1 [Example 48, 3-(5-Amino-6-(3,5-dimethyl-1H-pyrazol-1-yl)pyrazin-2-yl)-N-(2-hydroxy-2-methylpropyl)-4-methyl benzenesulfonamide] |  | > 10000 nM |  | 81 nM | 487 nM |  | 920 nM | > 10000 nM | 59 µL/min/mg | 7300 nM | > 10000 nM | 1530 nM |  | 2600 nM
15 | Cc1ccc(S(=O)(=O)NCCC(C)(C)O)cc1-c1cnc(N)c(-c2cc[nH]n2)n1 [Example 119.42] |  | > 9100 nM |  | 69 nM | 200 nM |  | 360 nM | > 9100 nM | 41 µL/min/mg | 2340 nM | 880 nM | 2240 nM |  | 710 nM

Source: patent US10004732B2 (Novartis AG, priority 2014, dated 2018)
